Where “and” joins values, the source holds several entries; their conditions need not be identical. Equal entries are not always repeated. Bounds are passed on as bounds.

The subject of one data set is male Wistar rats. Kind of data set: SCORE EEG/EMG sleep-wake monitoring: sleep continuity, number of arousals, depth of sleep. It is filed as in vivo, rat. Particulars: for normalized EEG delta power (slow wave activity) during nonREM sleep / increase in sleep bout-length per hour relative to vehicle control / cumulative increase in Total Sleep Time (NREM+REM sleep) relative to baseline: CT-18, male Wistar rats; for reductions in the number of transitions from sleep to wake per hour relative to controls: CT-5, male Wistar rats; for cumulative increase in Total Sleep Time (NREM+REM sleep) relative to baseline: 30 hours post-treatment. The method, then:
Example 30. Experimental Details and Methods for Determining Sleep Continuity, Number of Arousals, and Depth of Sleep
Treatment detail plots (see, e.g., FIGS. 1-10) depict pre- and post-treatment time series plot ±30 hours before and after treatment at CT-18 (6-hours after lights-off) or pre- and post-treatment time series plots 29 hr before and 31 hr after treatments at CT-5 (5-hours after lights-on). Treatment occurred at the beginning of the hour marked by a triangle on the abscissa of the plot. Variables were computed in hourly bins.
All data were plotted as group mean±SEM (see, e.g., FIGS. 1-10). The gray shaded area encompasses the vehicle treatment mean±SEM. Along the x-axis, time of treatment is marked by a triangle unless noted otherwise. Along the x-axis, light/dark bars indicate lights on/off.
Adult, male Wistar rats (approximately 270 g at time of surgery, Charles River Laboratories) were administered dexmedetomidine 25 μg/kg and anesthetized (2% isoflourane in 95/5 oxygen, to effect) and surgically prepared with a cranial implant that permitted chronic electro-encephalogram (EEG) and electromyogram (EMG) recording. Body temperature and locomotor activity were monitored via a miniature transmitter (Minimitter Series PDT4000 E-Mitter, Bend, Oreg.) surgically placed in the abdomen during the same anesthetic event when the cranial portion was implanted. The cranial implant consisted of miniature stainless steel screws (2 frontal [+3.9 AP from bregma, 2.0 ML], 2 occipital [−6.4 AP, 5.5 ML], and 1 ground placed sagittaly and posterior to lambda) for EEG recording. Two Teflon-coated multi-strand stainless steel wires were positioned under the nuchal trapezoid muscles for EMG recording. All leads were soldered to a miniature connector (Omnetics, Minneapolis, Minn.) and gas sterilized with ethylene oxide prior to surgery. The implant assembly was affixed to the skull by the combination of the EEG recording screws, cyanoacrylate applied between the hermetically sealed implant connector and skull, and a UV-curing dental acrylic. An analgesic (meloxicam 1 mg/kg IP) was administered 1 day prior to surgery and daily for 2 days post-surgery. Neosporin with lidocaine was applied topically to the peri-implant margin. At least three weeks were allowed for surgical recovery prior to any data collection.
Rats were housed individually within specially modified Innovive® cages equipped with a custom-built ultra-low-torque slip-ring commutator and a customized Innovive® polycarbonate cage-top. These cages were located on shelves of a modified stainless steel animal rack that was pre-wired for physiological and behavioral data collection. Food and water were available ad libitum and the ambient temperature was 22±1° C. A 24-hr light-dark cycle (LD 12:12) was maintained throughout the study using LED lighting strips. Light intensity averaged 35 lux at mid-level inside the cage. Relative humidity averaged 50% approximately. Animals were undisturbed for two days before and after each treatment.
Sleep and wakefulness were determined using SCORE™—a Linux and Windows-10 real-time computer-based sleep-wake and physiological monitoring system. Validation of the SCORE™ sleep stage identification algorithm in rodents and the system's utility in pre-clinical drug discovery and evaluation have been previously described (Edgar et al. Psychopharmacology 1991, 105, 374; Gilmour et al., Neuropharmacology 2012, 64, 224; McCarthy et al., 2016, Neuropharmacology 108, 415; Olive et al., J. Pharmacology &Experimental Therapeutics 1998 285, 1073; Phillips et al, Neuropharmacology 2012, 62, 1359; Seidel et al. J Pharmacology &Experimental Therapeutics 1995, 275, 263; Van Gelder et al. Sleep 1991, 14, 48). […]

Data set [1] in a line: Human clearance and half-life projections (allometric scaling from monkey clearance). Particulars: for T1/2 (h), projected human half-life: one-compartmental model, T1/2=0.693×(predicted Vd/predicted CL); for CL (mL/min/kg), projected human clearance: single species scaling from monkey clearance. The method, then: The biological activity of the compounds of the present disclosure may be determined utilizing projected human clearance (CL) and half-life in humans. An allometric scaling method, using a single species scaling from monkey clearance was used to project clearance. Human volume of distribution (Vd) was projected from animal Vd, adjusted for differences in plasma protein binding and assuming similar unbound Vd across species. Human half-life (T1/2) was calculated based on a one-compartmental model, using a relationship of T1/2=0.693×(predicted Vd/predicted CL).
An allometric scaling method, using a single species scaling from monkey clearance was used to project clearance. Human volume of distribution (Vd) was projected from animal Vd, adjusted for differences in plasma protein binding and assuming similar unbound Vd across species. Human half-life (T1/2) was calculated based on a one-compartmental model, using a relationship of T1/2=0.693×(predicted Vd/predicted CL).

A further data set deals with 5-HT2A (Homo sapiens (Human), UniProt P28223). Put plainly: 5-HT2A binding assay ([3H]-Ketanserin, HEK293 stable cell line membranes). The method, then:
H1 and 5-HT2A Binding Assay Protocol
(§1) The testing compounds were diluted with DMSO, starting at 2 mM, with 8-points and 5-fold serial dilutions. Ketanserin and Pyrilamine were diluted with DMSO, starting at 0.2 mM, with 8-points and 5-fold serial dilution.
(§2) 1 μl of a compounds of the present disclosure and either reference compound (Table C) were transferred to assay plates. 1 μl of 0.2 mM Ketanserin or Pyrilamine was transferred to an assay plate according to the plate map for nonspecific binding (Low control: LC). 1 μl of DMSO was transferred to an assay plate according to plate map for total binding (High control: HC).
(§3) 100 μlof membrane stocks were dispensed into the plates, following the plate map. 100 of radio ligand was added. The plates were sealed and shaken at 300 rpm at room temperature for 1 hour. The Unifilter-96 GF/C filter plates were soaked with 50 of 0.3% PEI per well for at least 0.5 hour at room temperature.
(§4) When the binding assays were complete, the reaction mixture was filtered through GF/C plates using Perkin Elmer Filtermate Harvester, and then each plate was washed 4 times with cold wash buffer. The filter plates were dried for 1 hour at 50 degrees. After drying, the bottom of the filter plate wells were sealed using Perkin Elmer Unifilter-96 backing seal tape. 50 μl of Perkin Elmer Microscint 20 cocktail was added. The top of the filter plates were sealed with Perkin Elmer TopSeal-A sealing film.
(§5) ^3H trapped on filters were counted using Perkin Elmer MicroBeta2 Reader. Inhibition constants were calculated using the following equation:
(§6) [formula] The data was analyzed using Prism 5. The model used was “log(inhibitor) vs. response—Variable slope” to fit the data and calculate IC50. The IC50 was then converted to Ki using following equation: Ki=IC50/(1+L/Kd). L is the radioligand concentration in the reaction system; Kd is the affinity of radioligand to the receptor.

A further data set deals with H1 (Homo sapiens (Human), UniProt P35367). Kind of data set: H1 binding assay ([3H]pyrilamine, HEK293 stable cell line membranes). How it is done: Example 25. H1 and 5-HT2A Binding Assay Protocol
H1, sequence (P35367 whole entry): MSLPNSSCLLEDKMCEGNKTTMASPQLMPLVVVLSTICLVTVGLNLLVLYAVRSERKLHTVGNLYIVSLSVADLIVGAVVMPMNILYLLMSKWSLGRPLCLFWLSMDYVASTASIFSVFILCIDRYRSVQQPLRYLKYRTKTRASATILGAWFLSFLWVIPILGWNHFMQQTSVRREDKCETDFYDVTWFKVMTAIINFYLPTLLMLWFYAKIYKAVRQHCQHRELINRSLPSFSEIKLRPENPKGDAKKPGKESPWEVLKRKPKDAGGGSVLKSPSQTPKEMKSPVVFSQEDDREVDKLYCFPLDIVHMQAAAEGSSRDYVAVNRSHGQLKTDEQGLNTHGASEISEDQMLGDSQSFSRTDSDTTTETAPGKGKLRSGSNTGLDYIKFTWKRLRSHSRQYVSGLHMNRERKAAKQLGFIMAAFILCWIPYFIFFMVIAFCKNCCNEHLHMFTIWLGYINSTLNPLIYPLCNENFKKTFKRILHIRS
as §1, §2, §3, §4, §5, §6

The target in a further data set is 5-HT2C (Homo sapiens (Human), UniProt P28335). Kind of data set: 5-HT2C binding assay ([3H]-Mesulergine, HEK293 membranes). Particulars: Table L, class symbols. How it is done:
5-HT2C Binding Assay Protocol
The testing compounds were diluted with DMSO, starting at 2 mM, with 8-points and 5-fold serial dilutions.
1 μL of a compound of the present disclosure the reference compound (Table J) was transferred to an assay plate. […] 1 μL of DMSO was transferred to an assay plate according to the plate map for total binding (High control: HC).
as §4, with “Unifilter-96 GF/C filter plates were soaked with 50 μL of 0.3% PEI per well for about 0.5 hours at room temperature. When” for “When”, “through the” for “through”, “GF/C filter” for “GF/C”, “and” for “and then”, “50° C.” for “50 degrees.”, “μL” for “μl”
as §5
[formula] The data was analyzed using Prism 5. The model used was “log(inhibitor) vs. response—Variable slope” to fit the data and calculate IC50. The IC50 was then converted to Ki using the following equation: Ki=IC50/(1+L/Kd), wherein L is the radioligand concentration in the reaction system; Kd is the affinity of radioligand to the receptor.

5-HT2A, sequence (P28223 whole entry, species assumed): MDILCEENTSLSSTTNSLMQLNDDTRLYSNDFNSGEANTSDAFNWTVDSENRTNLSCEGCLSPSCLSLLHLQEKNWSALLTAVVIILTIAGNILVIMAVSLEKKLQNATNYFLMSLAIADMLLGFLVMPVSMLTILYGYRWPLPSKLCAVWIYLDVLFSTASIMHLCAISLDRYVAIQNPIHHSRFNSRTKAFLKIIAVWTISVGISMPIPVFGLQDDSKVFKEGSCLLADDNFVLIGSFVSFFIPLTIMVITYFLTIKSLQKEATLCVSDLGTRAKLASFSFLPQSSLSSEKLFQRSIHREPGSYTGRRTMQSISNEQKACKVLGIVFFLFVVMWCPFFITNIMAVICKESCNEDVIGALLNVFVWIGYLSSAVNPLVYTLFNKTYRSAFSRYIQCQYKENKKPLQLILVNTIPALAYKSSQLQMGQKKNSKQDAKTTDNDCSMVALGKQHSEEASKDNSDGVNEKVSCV
5-HT2C, sequence (P28335 33-458): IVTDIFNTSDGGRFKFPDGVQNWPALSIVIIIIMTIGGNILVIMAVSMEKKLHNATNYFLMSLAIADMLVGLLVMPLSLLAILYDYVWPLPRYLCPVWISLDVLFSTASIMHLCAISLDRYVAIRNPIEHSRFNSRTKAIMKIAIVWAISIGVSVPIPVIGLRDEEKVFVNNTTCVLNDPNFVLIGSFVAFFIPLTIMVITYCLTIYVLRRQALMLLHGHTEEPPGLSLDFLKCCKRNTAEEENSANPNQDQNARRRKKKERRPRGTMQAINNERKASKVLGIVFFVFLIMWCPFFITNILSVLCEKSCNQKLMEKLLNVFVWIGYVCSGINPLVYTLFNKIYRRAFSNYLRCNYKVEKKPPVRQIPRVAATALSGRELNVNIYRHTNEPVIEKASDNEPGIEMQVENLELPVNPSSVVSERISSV

For orientation: Ki means the dissociation constant of the complex between target and ligand, obtained from inhibition or displacement. As to `CC(C)(CN1CCN(C2=Nc3ccccc3Cc3ccccc32)CC1)C(=O)O` [Compound No. 8, 3-(4-(11H-dibenzo[b,e]azepin-6-yl)piperazin-1-yl)-2,2-dimethylpropanoic acid], the “normalized EEG delta power (slow wave activity) during nonREM sleep” value with male Wistar rats (3 mg/kg PO) is “increases in EEG slow wave activity in nonREM sleep”. For the same molecule, in the data set on male Wistar rats (10 mg/kg PO), the “reductions in the number of transitions from sleep to wake per hour relative to controls” value was “up to 50%”. Besides, the “increase in sleep bout-length per hour relative to vehicle control” value in the data set with male Wistar rats (10 mg/kg PO) was “approximately 4 fold”. Further, the “cumulative increase in Total Sleep Time (NREM+REM sleep) relative to baseline” value in the data set with male Wistar rats (30 mg/kg PO, listed as Compound 8) is 70 min; with male Wistar rats (30 mg/kg PO, listed as compound 8) it was “approximately 70 minute”. Besides, the “T1/2 (h), projected human half-life” value in data set [1] was 2 to 4 h. The “CL (mL/min/kg), projected human clearance” value (shortened to “CL (mL/min/kg)”) in data set [1] is given as 1.8 mL/min/kg. Besides, the inhibition constant (Ki) was above 50 nM at 5-HT2A (Table F, class symbols); ~87 nM and 87 nM on 5-HT2A (numeric values); 25 to 50 nM at H1 (Table E, class symbols); 46 nM on H1 (numeric values); above 500 nM at 5-HT2C.
`CC(C)(CN1CCN(C2=Nc3ccccc3Oc3cc(C(F)F)ccc32)CC1)C(=O)O` [Compound No. 36, 3-(4-(3-(difluoromethyl)dibenzo[b,f][1,4]oxazepin-11-yl)piperazin-1-yl)-2,2-dimethylpropanoic acid]: in data set [1], the “T1/2 (h), projected human half-life” value was 14 to 50 h and the “CL (mL/min/kg)” value turned out to be 0.4 mL/min/kg.
On to `CC(C)(CN1CCN(C2=Nc3ccccc3Cc3cc(F)ccc32)CC1)C(=O)O` [Compound No. 37, 3-(4-(9-fluoro-11H-dibenzo[b,e]azepin-6-yl)piperazin-1-yl)-2,2-dimethylpropanoic acid], for which the Ki at 5-HT2A (Table F, class symbols) is above 50 nM; at H1 (Table E, class symbols), above 50 nM; at 5-HT2C, above 500 nM.
As to `Cc1ccc2c(c1)Oc1cc(C(F)F)ccc1C(N1CCN(CC(C)(C)C(=O)O)CC1)=N2` [Compound No. 15, 3-(4-(3-(difluoromethyl)-7-methyldibenzo[b,f][1,4]oxazepin-11-yl)piperazin-1-yl)-2,2-dimethylpropanoic acid], in the data set with male Wistar rats (30 mg/kg PO), the “reductions in the number of transitions from sleep to wake per hour relative to controls” value is on record as “approximately 30%”, the “increase in sleep bout-length per hour relative to vehicle control” value is given as “approximately 3 fold” and the “normalized EEG delta power (slow wave activity) during nonREM sleep” value was “increases in EEG slow wave activity in nonREM sleep”. Further, the Ki at 5-HT2A (Table F, class symbols) lay in the range of 1 to 25 nM. The molecule also had a Ki at H1 (Table E, class symbols) above 50 nM.
`Cc1ccc2c(c1)Cc1ccccc1C(N1CCN(CC(C)(C)C(=O)O)CC1)=N2` [Compound No. 38, 2,2-dimethyl-3-(4-(2-methyl-11H-dibenzo[b,e]azepin-6-yl)piperazin-1-yl)propanoic acid]: the Ki is above 50 nM at 5-HT2A (Table F, class symbols); above 50 nM on H1 (Table E, class symbols); below 100 nM on 5-HT2C.
Consider `Cc1ccc2c(c1)Oc1cc(F)ccc1N=C2N1CCN(CC(C)(C)C(=O)O)CC1` [Compound No. 6, 3-(4-(7-fluoro-3-methyldibenzo[b,f][1,4]oxazepin-11-yl)piperazin-1-yl)-2,2-dimethylpropanoic acid], for which, in data set [1], the “T1/2 (h), projected human half-life” value is 12 to 25 h. Besides, the “CL (mL/min/kg)” value in data set [1] was determined as 0.3 mL/min/kg. Also, the Ki was 1 to 25 nM on 5-HT2A (Table F, class symbols); 1 to 25 nM on H1 (Table E, class symbols); above 500 nM on 5-HT2C.
In the case of `Cc1ccc2c(c1)Oc1cc(Cl)ccc1N=C2N1CCN(CC(C)(C)C(=O)O)CC1` [Compound No. 1, 3-(4-(7-chloro-3-methyldibenzo[b,f][1,4]oxazepin-11-yl)piperazin-1-yl)-2,2-dimethylpropanoic acid], the Ki on 5-HT2A (Table F, class symbols) is 1 to 25 nM; at H1 (Table E, class symbols) it was 1 to 25 nM; at 5-HT2C it was above 500 nM.
